The nature of data set [1]: Cytotoxicity against human DK1 cells assessed as growth inhibition at 50 uM after 20 mins by green fluorescence assay relative to control. The class given is functional. The conditions noted are these: DK1, 20 min, read-out: GI.
Data set [2] in a line: Cytotoxicity against human DK1 cells assessed as growth inhibition at 25 uM after 20 mins by green fluorescence assay relative to control. It counts as functional. The note with it: DK1, 20 min, read-out: GI.
Data set [3] is described as follows: Cytotoxicity against human PNT2 cells assessed as cell viability after 72 hrs by cell titre glo assay. The class given is cell-based. The note with it: pnt2, 72 h.
The test system of data set [4] is HCT-116. Description: Cytotoxicity against human HCT116 cells assessed as cell viability after 72 hrs by cell titre glo assay. The class given is functional, cell-based.
In data set [5] the test system is HCT-116. Description: Cytotoxicity against human HCT116 cells assessed as cell viability at 0.1 to 100 uM after 48 hrs by cell titre glo assay. The class given is functional, cell-based.
Data set [6] deals with HCT-116. Description: Cytotoxicity against human HCT116 cells assessed as cell survival at 25 uM after 72 hrs by cell titre glo assay relative to control. It counts as functional. The note with it: HCT-116, 72 h, read-out: Survival.
The nature of data set [7]: Cytotoxicity against human PNT2 cells assessed as growth inhibition at 0.1 to 10 uM after 72 hrs by cell titre glo assay. The class given is cell-based. The note with it: pnt2, 72 h.
Data set [8] can be described thus: Cytotoxicity against human PNT2 cells assessed as cell viability at 50 uM after 72 hrs by cell titre glo assay. It counts as cell-based. The note with it: pnt2, 72 h.
For data set [9], the system named is HCT-116. Description: Cytotoxicity against human HCT116 cells assessed as cell viability at 50 uM after 72 hrs by cell titre glo assay relative to control. The class given is functional. The note with it: HCT-116, 72 h, read-out: Activity.

The source made the active and inactive calls. No cut-off for these calls is given here.

For the compound `NC(CSC1(c2ccc(Cl)cc2)c2ccccc2-c2ccccc21)C(=O)O` (configuration not stated), the inhibition of growth at 50 µM in data set [1] came out at 50%. Also, in [2], the inhibition of growth at 25 µM was determined as 35%. The Activity result (in [3]; in the data set with HCT-116 [4]) was “Dose-dependent effect” in each case. Moreover, the outcome in the data set on HCT-116 [5] was Active.

Turning to `NS(=O)(=O)c1cc2c(cc1Cl)NC(Cc1ccccc1)NS2(=O)=O` (configuration not stated), the result in the data set with HCT-116 [5] was inactive.

Take `COc1ccc2nc3cc(Cl)ccc3c(Nc3ccc(O)c(CN4CCN(C)CC4)c3)c2c1`: the inhibition of growth at 25 µM in data set [2] stood at 50%. Also, the Activity result (in data set [3]; in the data set with HCT-116 [4]) was “Dose-dependent effect” throughout. Also, the viability at 25 µM in the data set with HCT-116 [6] was 18%. Moreover, the result with HCT-116 [5] was Active.

`CC[C@@]1(O)C(=O)OCc2c1cc1n(c2=O)Cc2cc3c(CN(C)C)c(O)ccc3nc2-1` [TOPOTECAN]: the “growth inhibition (GI)” value in [7] is “Toxic”. The result in the data set with HCT-116 [5] was Active.

On to `CC(C)c1ccc(C(C2=C(O)C3C=CC=CC3OC2=O)c2c(O)c3ccccc3oc2=O)cc1` (configuration not stated), for which, in the data set with HCT-116 [5], the result was Active.

Take `O=C1c2ccccc2NC(c2cc(Cl)cc(Cl)c2O)N1CCc1ccccn1` (configuration not stated): the Activity result in data set [8] is “Non-toxic”. The viability at 50 µM with HCT-116 [9] was determined as 50%. Besides, the outcome in the data set on HCT-116 [5] was Active.

Turning to `OC(c1cc(-c2ccccc2)nc2c1ccc1ccccc12)C1CCCCN1` (configuration not stated), the inhibition of growth at 25 µM in data set [2] worked out at 50%. The Activity result (in [3]; in the data set with HCT-116 [4]) was “Dose-dependent effect” each time. In addition, the viability at 25 µM in the data set with HCT-116 [6] amounted to 0%. In addition, the result in the data set on HCT-116 [5] was Active.

With `OC(c1c(Cl)cc(Cl)c2nc(C34CC5CC(CC(C5)C3)C4)ccc12)C1CCCCN1` (configuration not stated), the “growth inhibition (GI)” value in data set [7] is on record as “Toxic”. Moreover, the result in the data set on HCT-116 [5] was Active.

With `Cc1cc(C)c2nc3c(c(C(O)C4CCCCN4)c2c1)CC/C3=C\c1ccc(Cl)cc1` (configuration not stated), the Activity entry in [8] is given as “Non-toxic”. In addition, the viability at 50 µM in the data set on HCT-116 [9] was determined as 50%. In the data set on HCT-116 [5], the result was Active.

For the origin of these results see ChEMBL document CHEMBL2380194, “Structure-based design of HSPA5 inhibitors: from peptide to small molecule inhibitors” (Bioorg Med Chem Lett, 2013).
